# Where two headings read alike, the source gives them in different places. Marks after values point to notes of the source that are not given here.
# Columns and labels:
# [1] = molecular target: T1, α-glucosidase from Saccharomyces cerevisiae (Saccharomyces cerevisiae, UniProt P53341); assay: α-Glucosidase assay; type: biochemical; details: for inhibition percentage lower than standard inhibitor acarbose on α-glucosidase: ratio of inhibition percentages, acarbose vs sample; for inhibition at 20 µM: read-out: Inhibition at 0.02 mM (%) α-Glucosidase
# T1 sequence (P53341 whole entry): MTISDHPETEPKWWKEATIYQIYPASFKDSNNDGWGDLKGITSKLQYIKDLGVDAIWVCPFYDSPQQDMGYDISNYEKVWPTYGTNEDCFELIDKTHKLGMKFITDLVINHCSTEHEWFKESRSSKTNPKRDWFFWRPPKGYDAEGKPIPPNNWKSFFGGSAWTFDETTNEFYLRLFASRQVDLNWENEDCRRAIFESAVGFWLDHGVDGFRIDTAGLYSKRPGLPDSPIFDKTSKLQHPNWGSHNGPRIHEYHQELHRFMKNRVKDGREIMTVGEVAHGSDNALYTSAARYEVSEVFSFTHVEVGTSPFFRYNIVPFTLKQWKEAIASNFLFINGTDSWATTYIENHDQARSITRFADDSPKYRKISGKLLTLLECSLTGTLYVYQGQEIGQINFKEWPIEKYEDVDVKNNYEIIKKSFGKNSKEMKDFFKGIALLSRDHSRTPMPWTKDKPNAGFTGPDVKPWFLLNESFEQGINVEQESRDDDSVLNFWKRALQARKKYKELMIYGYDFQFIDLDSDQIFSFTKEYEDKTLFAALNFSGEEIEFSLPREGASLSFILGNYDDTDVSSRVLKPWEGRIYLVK
# [2] = molecular target: T2, α-amylase from Aspergillus oryzae (Aspergillus oryzae, UniProt P0C1B3); assay: biochemical; details: for inhibition percentage lower than standard inhibitor acarbose on α-amylase: ratio of inhibition percentages, acarbose vs sample; for inhibition at 20 µM: read-out: Inhibition at 0.02 mM (%) α-Amylase
# [3] = molecular target: T1, α-glucosidase from Saccharomyces cerevisiae; assay: Kinetic study on α-glucosidase; type: biochemical; details: for α-Glucosidase inhibition type: Lineweaver-Burk and Dixon plots; for Ki: α-Glucosidase Ki, from slope (Km/Vmax) vs [I], substrate 4-pNPG, free enzyme
# [4] = molecular target: T2, α-amylase from Aspergillus oryzae; assay: Kinetic study on α-amylase; type: biochemical; details: for α-Amylase inhibition type: Lineweaver-Burk and Dixon plots; for Ki: substrate amylose
# DPPH assay = details: mean ± SD, n = 3; for Inhibitory activity at 0.5 mM (%): DPPH; for IC50: read-out: IC50 (DPPH free radical scavenging)
# [5] = IC50 values (mM) α-Amylase, mean ± SD, n = 3
# [6] = α-Amylase Ki, from slope (Km/Vmax) vs [I], free enzyme
# [7] = α-Amylase Ki´, from 1/Vmax vs [I], enzyme-substrate complex
SMILES,IC50 [1],inhibition percentage lower than standard inhibitor acarbose on α-glucosidase [1],inhibition at 20 µM [1],IC50 [2],less potential on α-amylase than 4a on α-glucosidase (IC50 ratio) ([2]; IC50 on α-amylase vs IC50 of 4a on α-glucosidase),less potential on α-amylase than 4b on α-amylase (IC50 ratio) ([2]; IC50 on α-amylase vs IC50 of 4b on α-amylase),less potential on α-amylase than 4b on α-glucosidase (IC50 ratio) ([2]; IC50 on α-amylase vs IC50 of 4b on α-glucosidase),"IC50 [2, 5]",inhibition percentage lower than standard inhibitor acarbose on α-amylase [2],inhibition at 20 µM [2],α-Glucosidase inhibition type [3],Ki [3],α-Amylase inhibition type [4],"Ki [4, 6]","Ki [4, 7]",Inhibitory activity at 0.5 mM (%) (DPPH assay),IC50 (DPPH assay)
"CC(=O)C1CCCN1Cc1ccccc1 (stereo not shown) [4a, N-(benzyl)-2-acetylpyrrolidine]",520 ± 20 µM,approximately 2.21 times,40.3 ± 0.8%,3.21 ± 0.65 mM,~6.2 times,approximately 1.20 times,approximately 2.0 times,2.72 ± 0.09 mM,~2.13 times,28.9 ± 0.57%,Mixed type,290 µM,Mixed type,230 µM,2350 µM,41.62 ± 0.64^a %,1010 ± 10 µM
"CC(=O)C1CCCN1S(=O)(=O)c1ccc(C)cc1 (stereo not shown) [4b, N-(tosyl)-2-acetylpyrrolidine]",1640 ± 80 µM,approximately 2.21 times,32.31 ± 0.29%,2.72 ± 0.09 mM,,,,3.21 ± 0.65 mM,~2.13 times,30.1 ± 0.78%,Mixed type,230 µM,Mixed type,270 µM,710 µM,34.28 ± 0.73^b %,1820 ± 48 µM
"C[C@H]1O[C@H](O[C@H]2[C@H](O)[C@@H](O)[C@@H](O[C@H]3[C@H](O)[C@@H](O)C(O)O[C@@H]3CO)O[C@@H]2CO)[C@H](O)[C@@H](O)[C@@H]1N[C@H]1C=C(CO)[C@@H](O)[C@H](O)[C@H]1O (stereo partly shown) [Acarbose, acarbose, reference compound]",,,,,,,,,,61.7 ± 1.14%,Mixed type,,Mixed type,,,,
